Values joined by “and” are separate entries in the source; they are usually repeats but may differ in a detail not shown here. Equal values may be shown once. Inconclusive results and toxic doses are left out.
Tested on: CD2F1 mice, L1210 leukemia ip, survival T/C
Experiment: NCI In Vivo Anticancer Drug Screen. Data for tumor model L1210 Leukemia (intraperitoneal) in CD2F1 (CDF1) mice
Settings: higher = longer survival
Method in brief: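 Antitumor effect is scored in animals hosting a serially transplanted tumor. Values compare compound-dosed animals against vehicle-only controls as a simple quotient.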

[1] = endpoint: mean survival time, dose: 100.0 mg/kg/injection, schedule: Q04DX002 (ip), vehicle: saline with Tween-80
[2] = endpoint: mean survival time, dose: 200.0 mg/kg/injection, schedule: Q04DX002 (ip), vehicle: saline with Tween-80
[3] = endpoint: mean survival time, dose: 50.0 mg/kg/injection, schedule: Q01DX009 (ip), vehicle: saline with Tween-80
[4] = endpoint: mean survival time, dose: 100.0 mg/kg/injection, schedule: Q01DX009 (ip), vehicle: saline with Tween-80
[5] = endpoint: mean survival time, dose: 200.0 mg/kg/injection, schedule: Q01DX009 (ip), vehicle: saline with Tween-80
[6] = endpoint: mean survival time, dose: 100.0 mg/kg/injection, schedule: Q01DX009 (ip), vehicle: Klucel (hydroxypropylcellulose) (HPC)
[7] = endpoint: mean survival time, dose: 200.0 mg/kg/injection, schedule: Q01DX009 (ip), vehicle: Klucel (hydroxypropylcellulose) (HPC)

## CCOC(CSCC#N)OCC
endpoint: mean survival time, dose: 12.5 mg/kg/injection, schedule: Q01DX009 (ip), vehicle: saline sonified
  T/C: 102 % of control
endpoint: mean survival time, dose: 12.5 mg/kg/injection, schedule: Q04DX003 (ip), vehicle: saline sonified
  T/C: 98 % of control
endpoint: mean survival time, dose: 25.0 mg/kg/injection, schedule: Q01DX009 (ip), vehicle: saline sonified
  T/C: 104 % of control
endpoint: mean survival time, dose: 25.0 mg/kg/injection, schedule: Q04DX003 (ip), vehicle: saline sonified
  T/C: 98 % of control
endpoint: mean survival time, dose: 50.0 mg/kg/injection, schedule: Q01DX009 (ip), vehicle: saline sonified
  T/C: 102 % of control
endpoint: mean survival time, dose: 50.0 mg/kg/injection, schedule: Q04DX003 (ip), vehicle: saline sonified
  T/C: 98 % of control

## Cc1cc(C)nc(NC(=S)N/N=C/c2ccc(O)cn2)n1
[1]
  T/C: 87 % of control
[2]
  T/C: 91 % of control
endpoint: mean survival time, dose: 400.0 mg/kg/injection, schedule: Q04DX002 (ip), vehicle: saline with Tween-80
  T/C: 91 % of control

## Cc1cccc(Cl)c1NC(=O)C(C)N1CCCC1 (centres undefined)
endpoint: mean survival time, dose: 12.5 mg/kg/injection, schedule: Q04DX003 (ip), vehicle: saline
  T/C: 100 % of control
endpoint: mean survival time, dose: 25.0 mg/kg/injection, schedule: Q04DX003 (ip), vehicle: saline
  T/C: 107 % of control
endpoint: mean survival time, dose: 50.0 mg/kg/injection, schedule: Q04DX003 (ip), vehicle: saline
  T/C: 104 % of control

## [C-]#[O+].[C-]#[O+].[C-]#[O+].[C-]#[O+].[C-]#[O+].[Cr].c1ccc([PH+](c2ccccc2)c2ccccc2)cc1
[3]
  T/C: 100 % of control
[4]
  T/C: 91 % of control
[5]
  T/C: 93 % of control

## CC1(C)C2C3C=CC(C3)C2S1(=O)=O (centres undefined)
endpoint: mean survival time, dose: 1.25 mg/kg/injection, schedule: Q01DX009 (ip), vehicle: saline with Tween-80
  T/C: 100 % of control
endpoint: mean survival time, dose: 1.25 mg/kg/injection, schedule: Q04DX003 (ip), vehicle: saline with Tween-80
  T/C: 110 % of control
endpoint: mean survival time, dose: 2.5 mg/kg/injection, schedule: Q01DX001 (ip), vehicle: saline
  T/C: 100 % of control
endpoint: mean survival time, dose: 2.5 mg/kg/injection, schedule: Q01DX009 (ip), vehicle: saline with Tween-80
  T/C: 101 % of control
endpoint: mean survival time, dose: 2.5 mg/kg/injection, schedule: Q04DX003 (ip), vehicle: saline with Tween-80
  T/C: 100 % of control
endpoint: mean survival time, dose: 5.0 mg/kg/injection, schedule: Q01DX001 (ip), vehicle: saline
  T/C: 100 % of control
endpoint: mean survival time, dose: 5.0 mg/kg/injection, schedule: Q01DX009 (ip), vehicle: saline with Tween-80
  T/C: 101 % of control
endpoint: mean survival time, dose: 5.0 mg/kg/injection, schedule: Q04DX003 (ip), vehicle: saline with Tween-80
  T/C: 107 % of control

## CC1(C)OCC2OC3(CO)NP(=O)(N(CCCl)CCCl)OC3C2O1 (centres undefined)
endpoint: mean survival time, dose: 62.5 mg/kg/injection, schedule: Q01DX001 (ip), vehicle: distilled water + Tween-80
  T/C: 102 % of control
endpoint: mean survival time, dose: 125.0 mg/kg/injection, schedule: Q01DX001 (ip), vehicle: distilled water + Tween-80
  T/C: 101 % of control
endpoint: mean survival time, dose: 250.0 mg/kg/injection, schedule: Q01DX001 (ip), vehicle: distilled water + Tween-80
  T/C: 93 % of control

## O=c1cc[nH]c(=O)o1
endpoint: mean survival time, dose: 42.0 mg/kg/injection, schedule: Q01DX009 (ip), vehicle: water
  T/C: 122 % of control
endpoint: mean survival time, dose: 100.0 mg/kg/injection, schedule: Q04DX003 (ip), vehicle: saline with Tween-80
  T/C: 114 % of control
endpoint: mean survival time, dose: 200.0 mg/kg/injection, schedule: Q04DX003 (ip), vehicle: saline with Tween-80
  T/C: 92 % of control
endpoint: median survival time, dose: 63.0 mg/kg/injection, schedule: Q01DX009 (ip), vehicle: water
  T/C: 87 % of control

## COc1cc2ccc3cnccc3c2cc1OC
endpoint: mean survival time, dose: 12.5 mg/kg/injection, schedule: Q01DX009 (ip), vehicle: Klucel (hydroxypropylcellulose) (HPC)
  T/C: 100 % of control
endpoint: mean survival time, dose: 25.0 mg/kg/injection, schedule: Q01DX009 (ip), vehicle: Klucel (hydroxypropylcellulose) (HPC)
  T/C: 92 % of control
endpoint: mean survival time, dose: 50.0 mg/kg/injection, schedule: Q01DX009 (ip), vehicle: Klucel (hydroxypropylcellulose) (HPC)
  T/C: 94 % of control
[6]
  T/C: 94 % of control
[7]
  T/C: 100 % of control

## COc1ccc(NC(=O)Nc2cccc(Cl)c2)c(OC)c1
[1]
  T/C: 88 % of control
[2]
  T/C: 98 % of control

## COc1ccc(-c2c3nc(c(-c4ccc(OC)cc4)c4ccc([nH]4)c(-c4ccc(OC)cc4)c4nc(c(-c5ccc(OC)cc5)c5ccc2[nH]5)C=C4)C=C3)cc1
endpoint: mean survival time, dose: 100.0 mg/kg/injection, schedule: Q04DX003 (ip), vehicle: Klucel (hydroxypropylcellulose) (HPC)
  T/C: 93 % of control
endpoint: mean survival time, dose: 200.0 mg/kg/injection, schedule: Q04DX003 (ip), vehicle: Klucel (hydroxypropylcellulose) (HPC)
  T/C: 101 % of control
endpoint: mean survival time, dose: 400.0 mg/kg/injection, schedule: Q04DX003 (ip), vehicle: Klucel (hydroxypropylcellulose) (HPC)
  T/C: 89 % of control

## C=CS(=O)(=O)CCCC
endpoint: mean survival time, dose: 100.0 mg/kg/injection, schedule: Q01DX001 (ip), vehicle: Klucel (hydroxypropylcellulose) (HPC)
  T/C: 96 % of control
endpoint: mean survival time, dose: 200.0 mg/kg/injection, schedule: Q01DX001 (ip), vehicle: Klucel (hydroxypropylcellulose) (HPC)
  T/C: 96 % of control
endpoint: mean survival time, dose: 400.0 mg/kg/injection, schedule: Q01DX001 (ip), vehicle: Klucel (hydroxypropylcellulose) (HPC)
  T/C: 101 % of control

## Nc1n[nH]c(=O)[nH]1
endpoint: mean survival time, dose: 31.3 mg/kg/injection, schedule: Q03HX024 (ip), vehicle: saline
  T/C: 106 % of control
endpoint: mean survival time, dose: 62.5 mg/kg/injection, schedule: Q03HX024 (ip), vehicle: saline
  T/C: 106 % of control
endpoint: mean survival time, dose: 125.0 mg/kg/injection, schedule: Q03HX024 (ip), vehicle: saline
  T/C: 109 % of control
endpoint: mean survival time, dose: 250.0 mg/kg/injection, schedule: Q03HX024 (ip), vehicle: saline
  T/C: 161 % of control

## CCCCCCCCCCCCCCCCCC(=O)CC
endpoint: mean survival time, dose: 100.0 mg/kg/injection, schedule: Q04DX002 (ip), vehicle: saline + alcohol
  T/C: 93 % of control
endpoint: mean survival time, dose: 200.0 mg/kg/injection, schedule: Q04DX002 (ip), vehicle: saline + alcohol
  T/C: 93 % of control
endpoint: mean survival time, dose: 400.0 mg/kg/injection, schedule: Q04DX002 (ip), vehicle: saline + alcohol
  T/C: 93 % of control

## CS(=O)(=O)OCC(/C=C/C(COS(C)(=O)=O)OS(C)(=O)=O)OS(C)(=O)=O (centres undefined)
[6]
  T/C: 150 % of control
[7]
  T/C: 175 % of control

## CN(C)CC1CCCC12OCCO2 (centres undefined)
endpoint: mean survival time, dose: 75.0 mg/kg/injection, schedule: Q01DX001 (ip), vehicle: other
  T/C: 100 % of control
endpoint: mean survival time, dose: 150.0 mg/kg/injection, schedule: Q01DX001 (ip), vehicle: other
  T/C: 96 % of control
endpoint: mean survival time, dose: 300.0 mg/kg/injection, schedule: Q01DX001 (ip), vehicle: other
  T/C: 106 % of control

## CC(=O)OCC1OC(N2C(=O)/C(=C/c3ccc4ccccc4c3)SC2=S)C(OC(C)=O)C(OC(C)=O)C1OC(C)=O (centres undefined)
endpoint: mean survival time, dose: 3.13 mg/kg/injection, schedule: Q01DX005 (ip), vehicle: distilled water + Tween-80
  T/C: 88 % of control
endpoint: mean survival time, dose: 6.25 mg/kg/injection, schedule: Q01DX005 (ip), vehicle: distilled water + Tween-80
  T/C: 94 % of control
endpoint: mean survival time, dose: 12.5 mg/kg/injection, schedule: Q01DX005 (ip), vehicle: distilled water + Tween-80
  T/C: 96 % of control
endpoint: mean survival time, dose: 25.0 mg/kg/injection, schedule: Q01DX005 (ip), vehicle: distilled water + Tween-80
  T/C: 98 % of control
endpoint: mean survival time, dose: 50.0 mg/kg/injection, schedule: Q01DX005 (ip), vehicle: distilled water + Tween-80
  T/C: 100 % of control

## C1CC2(CCC13CS3)CS2 (centres undefined)
endpoint: mean survival time, dose: 50.0 mg/kg/injection, schedule: Q04DX002 (ip), vehicle: saline with Tween-80
  T/C: 98 % of control
[1]
  T/C: 98 % of control
[2]
  T/C: 95 % of control

## Cc1nnc2ncccn12
endpoint: mean survival time, dose: 12.5 mg/kg/injection, schedule: Q01DX009 (ip), vehicle: saline
  T/C: 96 % of control and 102 % of control
endpoint: mean survival time, dose: 25.0 mg/kg/injection, schedule: Q01DX009 (ip), vehicle: saline
  T/C: 96 % of control and 97 % of control
endpoint: mean survival time, dose: 50.0 mg/kg/injection, schedule: Q01DX009 (ip), vehicle: saline
  T/C: 92 % of control and 96 % of control
endpoint: mean survival time, dose: 100.0 mg/kg/injection, schedule: Q01DX009 (ip), vehicle: saline
  T/C: 95 % of control and 97 % of control
endpoint: mean survival time, dose: 200.0 mg/kg/injection, schedule: Q01DX009 (ip), vehicle: saline
  T/C: 90 % of control and 96 % of control

## COC1OC2COCOC2C(OS(=O)(=O)c2ccc(C)cc2)C1OS(=O)(=O)c1ccc(C)cc1 (centres undefined)
[3]
  T/C: 103 % of control
[4]
  T/C: 97 % of control
[5]
  T/C: 97 % of control

## CN(Cc1ccccc1)N=Nc1ccc(C(=O)O)cc1
endpoint: mean survival time, dose: 25.0 mg/kg/injection, schedule: Q01DX009 (ip), vehicle: other
  T/C: 105 % of control
endpoint: mean survival time, dose: 50.0 mg/kg/injection, schedule: Q01DX009 (ip), vehicle: other
  T/C: 108 % of control
endpoint: mean survival time, dose: 100.0 mg/kg/injection, schedule: Q01DX009 (ip), vehicle: other
  T/C: 101 % of control

## O=C(O)c1cccs1
endpoint: mean survival time, dose: 100.0 mg/kg/injection, schedule: Q04DX003 (ip), vehicle: other
  T/C: 100 % of control
endpoint: mean survival time, dose: 200.0 mg/kg/injection, schedule: Q04DX003 (ip), vehicle: other
  T/C: 102 % of control

## C=CCn1nnnc1N
endpoint: mean survival time, dose: 100.0 mg/kg/injection, schedule: Q04DX003 (ip), vehicle: saline
  T/C: 101 % of control
endpoint: mean survival time, dose: 200.0 mg/kg/injection, schedule: Q04DX003 (ip), vehicle: saline
  T/C: 103 % of control
endpoint: mean survival time, dose: 400.0 mg/kg/injection, schedule: Q04DX003 (ip), vehicle: saline
  T/C: 101 % of control

Reference: PubChem BioAssay AID256 (DTP/NCI, 2004)
